The melting point is the temperature of the solid-liquid transition.

Some results are limits rather than exact numbers.

87 compounds from a melting point compilation (Tetko et al.; mined from patent text by program, amines drawn as free bases though some values may be those of a salt) can be followed below.

In the case of `CC(=O)Nc1cccc2c1C(=O)c1c-2n[nH]c1-c1ccncc1`, the melting point is more than 300 °C.
`COCCCNC(N)=O` yielded a melting point of 128 to 130 °C.
The compound `COc1ccccc1Oc1c(NS(=O)(=O)c2ccc(C(C)(C)C)cc2)nc(-c2ncccn2)nc1OCCOc1ccc(C(C)=O)cc1` displayed a melting point of 169 to 172 °C.
The result for `CCCCCCCCCCCCCCN(C)c1ccc(N)cc1C(=O)O` reads 79 °C; that for `O=S(=O)(/C=C/c1ccccc1)c1ncc(Cl)cn1`, 150 °C; that for `COC(=O)c1ccccc1C(=O)Nc1cc(C(F)(F)C(F)(F)F)on1`, 97 to 100 °C.
In the case of `CCC(NC(=O)C(F)F)c1ccc(Cl)c2nc3n(c12)CCCN3c1ccc(Cl)cc1Cl` (configuration not stated), the melting point was in the range of 248 to 250 °C.
The result for `CC1=C(C#N)C(=C(C#N)C#N)OC1(C)C` reads 203 °C; that for `Cn1cc(C2=C(c3cn(CCCNS(C)(=O)=O)c4ccccc34)C(=O)NC2=O)c2ccccc21`, 135 to 138 °C.
Regarding `COC(=O)c1ccc(COc2cccc(-c3c(C(=O)c4ccccc4)cnc4c(C(F)(F)F)cccc34)c2)c(OC)c1`, the melting point was in the range of 60 to 63 °C.
In the case of `C(=CCON(Cc1ccccc1)Cc1ccccc1)CON(Cc1ccccc1)Cc1ccccc1`, the melting point lay in the range of 82 to 85 °C.
The result for `COc1cc(OC)c(-c2nc3cccnc3[nH]2)cc1C=CC(=O)c1ccc(S(N)(=O)=O)cc1` reads more than 260 °C; that for `COC[C@H]1CCCN1NC(=O)c1ccc(-c2[nH]nc3c2C(=O)c2c(NC(=O)NN4CCOCC4)cccc2-3)s1`, 266 to 267 °C; that for `O=C1NN=C(c2ccc(NC(=O)C3CC3(Cl)Cl)cc2)C2CC12` (configuration not stated), 264 to 265 °C.
The result for `O=c1[nH]c2cc(Cl)c(S(=O)CCN3CCC(Cc4ccc(F)cc4)CC3)cc2o1` (configuration not stated) reads 199 to 200 °C; that for `Cc1ccc(S(=O)(=O)N2CC2CCOS(C)(=O)=O)cc1` (configuration not stated), 78 to 80 °C; that for `CC(CO)c1ccc(-c2ccc(F)cc2F)c(O)c1` (configuration not stated), 118 °C.
`CCCCCCCCCCCCCCCCCCOc1cc(OC(=O)C(c2ccccc2)c2ccccc2)cc(C(=O)O)c1`: the melting point was in the range of 82 to 86 °C.
With `CCCC(=O)Nc1ccc(N2CCC(NC[C@H](O)COc3cccc4[nH]c(=O)[nH]c34)CC2)cc1`, the melting point lay within 190 to 201 °C.
`Oc1ccc2nc(CCl)oc2c1` displayed a melting point of 148 to 154 °C.
In turn, `CC=CC(c1ccc2c(c1)nnn2C)n1ccnc1` (configuration not stated) registered a melting point of 104 °C.
In turn, `COc1ccccc1C(=O)c1ccc(Cl)nc1` displayed a melting point of 46 to 47 °C.
`CCOc1cc2c3c(cccc3c1)C(=O)N(O)C2=O` came in with a melting point of 224 to 227 °C.
Consider `Cn1nc(-c2c(F)cccc2F)nc1-c1ccc(OCc2ccc(OC(F)(F)F)cc2)c(Cl)c1`, for which the melting point was 132 to 136 °C.
As to `COc1ccc2c(c1)CC(NCC(=O)O)CC2` (configuration not stated), the melting point amounted to 203 °C.
As for `Cc1cc(OCc2ccccc2)cc(OCC2CCCCC2)c1C(=O)O`, the melting point was in the range of 127 to 128 °C.
The result for `CS(=O)(=O)c1ccc(-n2nc(C(F)(F)F)cc2-c2ccc(-c3cscn3)c(Cl)c2)cc1F` reads 108 to 110 °C.
Compound `CC(C(=O)O)C1CC(=O)N(c2ccc(Cl)cc2)C1` (configuration not stated) displayed a melting point of 63 to 67 °C.
On to `CNc1nc(OC(C)C)ccc1[N+](=O)[O-]`, for which the melting point lay within 75 to 76 °C.
`Cc1ccc(NC(=O)C(C)(C)C)c(-c2cccc(Br)n2)c1` displayed a melting point of 120 to 126 °C.
`CC1CN2CC(=O)N(C)c3ccc(Cl)cc3C2(c2ccccc2)O1` (configuration not stated) yielded a melting point of 142 to 143 °C.
Turning to `O=c1cc(COC2CCCCO2)occ1O` (configuration not stated), the melting point is 94 °C.
The result for `CC(=O)c1ccc(OC(C)(C)C(=O)O)c(Cl)c1` reads 123 to 125 °C; that for `CCOC(=O)N/N=C/c1ccc(OC)c(OC2CCCC2)c1`, 146 to 147 °C.
`O=C(O)c1nc2n(n1)-c1cccnc1N(c1ccc(Cl)cc1)C2`: the melting point lay in the range of 234 to 237 °C.
On to `Nc1c2c(nc3ccccc13)CCC=C2`, for which the melting point is 178 to 179 °C.
In turn, `CCOC(=O)c1cnc2ccc(OC)nc2c1Cl` returned a melting point of 98 to 100 °C.
`C[C@H]1C[C@H](OC(=O)C(C)(C)Oc2ccc(CCNC(=O)c3ccc(Cl)cc3)cc2)CC(C)(C)C1` (relative stereo) came in with a melting point of 100 °C.
The result for `CC(C)(C)NC(=O)N1CCn2c(c(C(N)=O)c(Br)c2C2CC2)C1` reads 204 to 208 °C; that for `C(=C\c1ccc2oc3ccc(/C=C/c4ccccc4)cc3c2c1)/c1ccccc1`, 226 °C; that for `COc1ccc(C2(C)Cc3cc(O)c(Cl)c(Cl)c3C2=O)cc1` (configuration not stated), 149 to 156 °C.
The result for `COc1cc(OC)nc(Oc2cccc(Cl)c2C(=O)NS(=O)(=O)C(C)C)n1` reads 150 to 152 °C; that for `O=C1C(=O)N(c2ccccc2)C(=O)N1c1ccccc1`, 203 °C; that for `Cc1cc(Cl)cc(C(=O)NC2(C)CC2)c1NC(=O)c1cc(Br)nn1-c1ncccc1Cl`, more than 250 °C.
`Oc1cc2ccccc2cc1OCCOc1ccccc1` displayed a melting point of 141 to 142 °C.
As for `CCOC(=O)c1ccc(OCC2=CCN(c3ccc(Cl)nn3)CC2)cc1`, the melting point came to 162 °C.
The result for `CC(C)C[C@H](NS(=O)(=O)c1ccc2c(c1)Sc1ccccc1O2)C(=O)O` reads 120 to 130 °C; that for `CC(CCCC(C)(C)O)C1CCC2C3CCC4(O)CC(=O)CCC4(C)C3CCC12C` (configuration not stated), 215 to 217 °C.
The result for `O=C1C=C(O)CC(c2cc(C3CCOC3)no2)C1` (configuration not stated) reads 142 to 144 °C; that for `Cc1ccc2c(c1)CN(C(=O)NCCc1ccc(S(=O)(=O)NC(=O)NC3CCCCC3)cc1)C2=O`, 216 to 218 °C.
The compound `O=c1c(CCCCCc2ccncc2)cc2cccnc2n1-c1cccc([N+](=O)[O-])c1` registered a melting point of 189 to 190 °C.
On to `O=C(O)Cc1c(C(=O)O)c2cc(Oc3ccc(C(F)(F)F)cc3)ccc2n1-c1ccc(N2CCOCC2)cc1`, for which the melting point is 257 to 259 °C.
For `CCCc1nc(CO)c(C(=O)O)n1Cc1cc2c(cc1Cl)OCO2`, the melting point came out at 240 °C.
As to `COc1cccc(C(=O)n2c3c(c4ccccc42)CC(C(=O)O)CC3)c1` (configuration not stated), the melting point lay in the range of 197 to 200 °C.
In turn, `O=Cc1c(F)cccc1Sc1ccc(F)cc1` displayed a melting point of 94 to 97 °C.
The result for `Nc1ccc(C2OCCO2)nc1` reads 81 to 82 °C; that for `CCOCc1nc2c(N)nc(C)c(C)c2n1NCCCNC(=O)NC(C)C`, 203 to 205 °C.
`CN1CCc2c(Cl)ccc(CO)c2CC1`: the melting point was 136 to 140 °C.
Take `CCOC(=O)C(Cc1ccc(C(=O)C(C)(C)C)cc1)Cc1ccc(C(=O)C(C)(C)C)cc1`: the melting point fell in the range of 60 to 63 °C.
The result for `O=C(N[C@H](Cc1ccc(C(F)(F)F)cc1)[C@@H](O)c1ccc(F)cc1)c1ccc2c(c1)OCO2` (racemic) reads 180 to 181 °C; that for `COc1ccc(-n2c(-c3ccc(Br)cc3)nc3c4ccccc4c4ccccc4c32)cc1`, 239 °C.
The result for `Cc1ccc(-c2ccccc2C(=O)NCc2ccc([N+](=O)[O-])cc2)cc1` reads 153 to 154 °C.
The compound `Nc1sc2c(c1C(=O)c1ccc3ccccc3c1)CCN(Cc1ccccc1F)C2` had a melting point of 183 to 185 °C.
On to `CCOC(=O)c1cnc2sc(-c3cccnc3)nn2c1=O`, for which the melting point is 200 to 202 °C.
In turn, `CCC1c2ccc(F)n2-c2ccc(F)cc2N1S(=O)(=O)c1ccc(O)c(C)c1` (configuration not stated) had a melting point of 149 to 151 °C.
As for `CC1(Br)CS(=O)C2C(NC(=O)Cc3ccccc3)C(=O)N2C1C(=O)OCC(Cl)(Cl)Cl` (configuration not stated), the melting point is 159 to 161 °C.
`CCC1(F)CN(C2CCCC2)c2nc(Nc3ccc(C(=O)NC4CCN(C)CC4)cc3OC)ncc2N(C)C1=O` (configuration not stated) came in with a melting point of 149 to 153 °C.
In turn, `N[C@@]1(C(=O)O)C[C@H](NC(=O)Nc2c(Cl)cccc2Cl)[C@H]2[C@H](C(=O)O)[C@H]21` (relative stereo) returned a melting point of more than 250 °C.
As for `COC(=O)CCCCCCNC(=O)C(CS)Cc1ccccc1` (configuration not stated), the melting point fell in the range of 68 to 70 °C.
`CCCC1(C)CC(C)c2ccc(O)c(C)c2O1` (configuration not stated) registered a melting point of 60 °C.
For `OCc1cnc2ccc(F)cc2c1O`, the melting point lay within 310 to 315 °C.
`COC(OC)c1cnc(-c2ccccc2)nc1N` showed a melting point of 116 to 118 °C.
The result for `FC(F)(F)c1cc(CO[C@H]2CCCN(Cc3nsc(I)n3)[C@H]2c2ccccc2)cc(C(F)(F)F)c1` reads 98 to 101 °C.
The result for `CNC(=O)c1ccc(-c2cccc(C3=NC(C)(C)Cc4cc(OC)c5c(c43)CC(C)(C)O5)c2)cc1` reads 242 to 244 °C; that for `O=C(Nc1ccccc1)[NH+]([O-])Cc1ccncc1` (configuration not stated), 174 °C.
`C=Cc1ccc(NS(C)(=O)=O)c(F)c1` yielded a melting point of 82 °C.
For the compound `CCOc1nc(C(=O)O)ccc1C#N`, the melting point was in the range of 185 to 190 °C.
`COCOc1ccc(Cl)cc1-c1cc(-c2cccc([N+](=O)[O-])c2)c(C#N)c(N)n1` gave a melting point of 192 to 193 °C.
The compound `CC[C@@]12C[C@@](C)(O)[C@](O)(c3ccccc3)C[C@H]1CCc1cc(OCC(=O)O)ccc12` registered a melting point of 190 to 191 °C.
With `CC1CN=C2C=CC(c3cccnc3)=NN21` (configuration not stated), the melting point lay in the range of 104 to 105 °C.
For `CC(C)Oc1ccc(-c2nn(C(C)c3oc4ccccc4c(=O)c3-c3cccc(F)c3)c3ncnc(N)c23)cc1Cl` (configuration not stated), the melting point is 198 to 200 °C.
In turn, `COC(=O)Cc1ccc2oc(-c3ccc(OC)c(OC)c3)c(SC)c2c1` returned a melting point of 91 °C.
The compound `C=CCc1c(O)cc(Cl)c2c(-c3ccccc3F)noc12` gave a melting point of 211 to 212 °C.
The result for `CC(C)SN1N=C(c2ccccc2)C(SC(C)C)(SC(C)C)C1=O` reads 66 to 67 °C.
`O=C(O)CCCCCCCCNS(=O)(=O)c1ccc(Br)cc1` yielded a melting point of 124 to 125 °C.
Compound `CC(C)NC(=S)Nc1ccc(Cl)c(-c2ccnc3c(C(=O)c4cccs4)cnn23)c1` registered a melting point of 194 to 195 °C.
In turn, `COc1cc2c3c(n(C)c(=O)c2cc1OC)-c1cc(OCc2ccccc2)c(OCc2ccccc2)cc1C3=O` showed a melting point of 238 to 240 °C.
